Square brackets hold non-standard residues; d marks the D form. Ends that are not written are not given here. Peptide text beside a SMILES is read from it.
Key:
[1] = target: hJNK1 (Homo sapiens, UniProt P45983); experiment: hJNK1 | IC50
Excerpt: (§1) Table printed on a drawing sheet, Fig. 2 Head of the field: hJNK1 | IC50 The patent's description of the figure: FIG. 2: Table illustrating the inhibitory efficacy of several JNK inhibitors (SEQ ID NOs: 193, 2, 3, 5, 6, and 7) according to the present invention. Given are the IC50 values in the nM range, the respective standard error of the mean and the number of experiments performed (n). First copying reader's note: The sheet prints no unit for IC50 and SEM; decimal commas are used and lower-case residue letters are as printed. Where the first naming reader finds the target: head: hJNK1

[2] = target: hJNK2 (Homo sapiens, UniProt P45984); experiment: hJNK2 | IC50
Chain of hJNK2 (P45984 whole entry, looked up): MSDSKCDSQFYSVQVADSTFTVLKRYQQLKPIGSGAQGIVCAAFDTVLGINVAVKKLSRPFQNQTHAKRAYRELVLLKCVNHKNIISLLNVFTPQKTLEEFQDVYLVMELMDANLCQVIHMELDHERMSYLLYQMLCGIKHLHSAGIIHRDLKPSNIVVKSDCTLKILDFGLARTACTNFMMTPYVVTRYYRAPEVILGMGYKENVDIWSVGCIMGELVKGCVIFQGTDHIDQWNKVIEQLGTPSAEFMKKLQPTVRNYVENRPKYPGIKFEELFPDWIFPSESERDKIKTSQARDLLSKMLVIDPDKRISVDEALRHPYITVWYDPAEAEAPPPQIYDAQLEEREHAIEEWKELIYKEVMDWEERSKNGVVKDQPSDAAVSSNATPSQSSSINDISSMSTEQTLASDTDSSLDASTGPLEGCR
Excerpt: as §1, with “hJNK2” for “hJNK1”

[3] = target: hJNK3 (Homo sapiens, UniProt P53779); experiment: hJNK3 | IC50
Chain of hJNK3 (P53779 whole entry, looked up): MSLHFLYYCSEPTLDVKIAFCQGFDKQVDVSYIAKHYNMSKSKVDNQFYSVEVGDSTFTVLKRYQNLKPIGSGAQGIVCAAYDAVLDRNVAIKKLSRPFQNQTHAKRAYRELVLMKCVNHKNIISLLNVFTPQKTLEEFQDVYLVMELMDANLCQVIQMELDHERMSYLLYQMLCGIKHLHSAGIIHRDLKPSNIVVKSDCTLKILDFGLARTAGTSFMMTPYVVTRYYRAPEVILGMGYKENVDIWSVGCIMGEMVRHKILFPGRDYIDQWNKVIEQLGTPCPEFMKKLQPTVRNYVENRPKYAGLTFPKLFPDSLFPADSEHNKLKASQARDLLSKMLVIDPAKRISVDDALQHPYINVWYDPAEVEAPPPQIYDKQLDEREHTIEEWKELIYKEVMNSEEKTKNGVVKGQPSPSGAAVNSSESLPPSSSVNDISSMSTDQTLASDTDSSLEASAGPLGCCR
Excerpt: as §1, with “hJNK3” for “hJNK1”

[4] = tested on: Hela cells; experiment: Internalization of transporter constructs, 24 hours, fluorescence of cell extracts (FIG. 6); format: cell-based
Procedure: The transporter sequences analyzed correspond to SEQ ID NOs: 52-94 plus SEQ ID NOs: 45, 47, 46, 43 and 99 (FIG. 6a) and SEQ ID NOs: 100-147 (FIG. 6b). […] Hela cells were incubated 24 hours in 96 well plate with […] of the respective transporters. The cells were then washed twice with an acidic buffer (0.2M Glycin, 0.15M NaCl, pH 3.0) and twice with PBS. Cells were broken by the addition of RIPA lysis buffer. The relative amount of internalized peptide was then determined by reading the fluorescence intensity (Fusion Alpha plate reader; PerkinElmer) of each extract followed by background subtraction.
Hela cells were incubated 24 hours in 96 well plate with […] of the r3-L-TAT-derived transporters. The cells were then washed twice with an acidic buffer (0.2M Glycin, 0.15M NaCl, pH 3.0) and twice with PBS. Cells were broken by the addition of RIPA lysis buffer. The relative amount of internalized peptide was then determined by reading the fluorescence intensity (Fusion Alpha plate reader; PerkinElmer) of each extract followed by background subtraction

[5] = Stability (half-life) in human serum, intact peptide by UPLC-MS; format: in vitro ADME; details: human serum (50% in FIG. 5; 10 and 50% in PBS), 0.1 mM peptide
Procedure: FIG. 5: Stability of JNK inhibitors with SEQ ID NOs: 172, 196 and 197 in 50% human serum. The JNK inhibitor with SEQ ID NO: 196 was totally degraded into amino acids residues within 6 hours (A). The JNK inhibitor with SEQ ID NO: 172 was completely degraded only after 14 days (B). The JNK inhibitor with SEQ ID NO: 197 was stable at least up to 30 days (B).
The JNK inhibitors with the sequence of SEQ ID NOs: 196, 197, and 172 (0.1 mM final concentration) were digested in human serum (10 and 50% in PBS 1×). The experiment was performed as described by Tugyi et al. (Proc Natl Acad Sci USA, 2005, 413-418). The remaining intact peptide was quantified by UPLC-MS. Stability was assessed for SEQ ID NOs: 196, 197, and 172 identically but in two separate assays. While the JNK inhibitor with SEQ ID NO: 196 was totally degraded into amino acids residues within 6 hours, the JNK inhibitor with SEQ ID NO: 172 was completely degraded only after 14 days. The JNK inhibitor with SEQ ID NO: 197 was still stable after 30 days.

[6] = tested on: endotoxins-induced uveitis albino rat model; experiment: Endotoxins induced uveitis (EIU), single intravenous injection, clinical scoring 24 hours after LPS; format: in vivo; parameters: key to clinical score of ocular inflammation, mean score (mean±SEM) / clinical score of ocular inflammation, median: ocular inflammation score per eye, 0 = none to 4 = intense (+1 fibrin); details: 20 μg/eye sub-conjunctival, 24 hours after LPS
Procedure: FIG. 28 Clinical evaluation of administration of different amounts of the JNK inhibitor according to SEQ ID NO: 172 in albino rats after intravenous administration (endotoxins induced uveitis model). Form left to right: Vehicle, 0.015 mg/kg (i.v.) of SEQ ID NO: 172; 0.18 mg/kg (i.v.) of SEQ ID NO: 172; 1.8 mg/kg (i.v.) of SEQ ID NO: 172, 2 mg/kg (i.v.) of SEQ ID NO: 197 and 20 μg dexamethasone (administered directly by subconjunctival injection to the eye). Indicated is the clinical score (mean and the SEM).
The anti-inflammatory potency of the JNK inhibitor of SEQ ID NO: 172 was tested in albino rats following intravenous administration (EIU/LPS model). The aim of this study was to determine the effects of single intravenous injections of SEQ ID NO: 172 (0.015, 0.18, and 1.80 mg/kg) on the inflammatory response in an endotoxins-induced uveitis albino rat model and to compare these affects to those obtained with prior art JNK inhibitor of SEQ ID NO: 197 (2 mg/kg). As a further control served phosphate sodic dexamethasone.
Sixty (60) male Lewis rats were randomly divided into six (6) groups of ten (10) animals each. EIU was induced by footpad injection of lipopolysaccharide (LPS, 1 mg/kg). NaCl (0.9%), SEQ ID NO: 197 at 2 mg/kg and SEQ ID NO: 172 at three concentrations (1.80 mg/kg, 0.18 mg/kg and 0.015 mg/kg) were administered by intravenous injection. Phosphate sodic dexamethasone ([…]) was administered by sub-conjunctival injection in both eyes. 24 hours after LPS injection, inflammatory response was evaluated by clinical scoring.
The intensity of clinical ocular inflammation was scored on a scale from 0 to 4 for each eye: • Grade 0 no inflammation • Grade 1 slight iris and conjunctival vasodilation • Grade 2 moderate iris and conjunctival vasodilation with flare • Grade 3 intense iris and conjunctival vasodilation with flare • Grade 4 intense inflammatory reaction • (+1) fibrin formation and seclusion of pupils

Chain of hJNK1 (P45983 whole entry, looked up): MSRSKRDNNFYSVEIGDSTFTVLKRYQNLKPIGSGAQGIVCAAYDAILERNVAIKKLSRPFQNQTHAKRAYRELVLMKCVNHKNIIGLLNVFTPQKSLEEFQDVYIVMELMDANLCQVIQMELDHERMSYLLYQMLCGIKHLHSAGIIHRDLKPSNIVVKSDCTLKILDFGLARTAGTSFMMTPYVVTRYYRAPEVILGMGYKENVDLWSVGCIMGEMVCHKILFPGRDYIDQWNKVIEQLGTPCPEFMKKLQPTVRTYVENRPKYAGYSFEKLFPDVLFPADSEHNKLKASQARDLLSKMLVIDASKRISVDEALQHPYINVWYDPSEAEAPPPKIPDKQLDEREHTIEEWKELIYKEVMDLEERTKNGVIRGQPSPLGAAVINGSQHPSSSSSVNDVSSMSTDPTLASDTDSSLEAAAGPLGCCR

Molecule | IC50 [1] [nM] | IC50 [2] [nM] | IC50 [3] [nM] | other results
CC(C)C[C@H](NC(=O)[C@@H](NC(=O)[C@@H](NC(=O)[C@@H]1CCCN1C(=O)[C@H](CCCNC(=N)N)NC(=O)[C@H](CCCCN)NC(=O)[C@@H]1CCCN1C(=O)[C@@H](N)CCCNC(=N)N)[C@@H](C)O)[C@@H](C)O)C(=O)N[C@H](CCCNC(=N)N)C(=O)N[C@@H](CC(C)C)C(=O)N[C@@H](Cc1ccccc1)C(N)=O [SEQ ID NO: 6] (H-RPKRPTTL[dR]LF-NH2) | 90.5 | 359 | 120 | 
CC(C)C[C@H](NC(=O)[C@H](CC(N)=O)NC(=O)[C@H](CC(C)C)NC(=O)[C@@H](NC(=O)[C@@H](NC(=O)[C@@H]1CCCN1C(=O)[C@H](CCCNC(=N)N)NC(=O)[C@H](CCCCN)NC(=O)[C@@H]1CCCN1C(=O)[C@H](N)CCCNC(=N)N)[C@@H](C)O)[C@@H](C)O)C(=O)N[C@@H](Cc1ccccc1)C(N)=O [SEQ ID NO: 2] (H-[dR]PKRPTTLNLF-NH2) |  | 424 | 103 | 
H-RPKRPTTLNLF-NH2 [SEQ ID NO: 193] | 39.5 | 184 | 67.7 | 
CC(C)C[C@H](NC(=O)[C@H](CC(N)=O)NC(=O)[C@H](CC(C)C)NC(=O)[C@@H](NC(=O)[C@@H](NC(=O)[C@@H]1CCCN1C(=O)[C@H](CCCNC(=N)N)NC(=O)[C@@H](CCCCN)NC(=O)[C@@H]1CCCN1C(=O)[C@@H](N)CCCNC(=N)N)[C@@H](C)O)[C@@H](C)O)C(=O)N[C@@H](Cc1ccccc1)C(N)=O [SEQ ID NO: 3] (H-RP[dK]RPTTLNLF-NH2) | 312 | 1210 | 359 | 
rYKRrQRRr ([dR]YKR[dR]QRR[dR]) [SEQ ID NO: 142] |  |  |  | transporter activity (Y in position 2) [4]: highest transporter activity
CC(C)C[C@H](NC(=O)[C@H](CC(N)=O)NC(=O)[C@H](CC(C)C)NC(=O)[C@@H](NC(=O)[C@@H](NC(=O)[C@@H]1CCCN1C(=O)[C@H](CCCNC(=N)N)NC(=O)[C@H](CCCCN)NC(=O)[C@@H]1CCCN1C(=O)[C@@H](N)CCCNC(=N)N)[C@@H](C)O)[C@@H](C)O)C(=O)N[C@H](Cc1ccccc1)C(N)=O [SEQ ID NO: 7] (H-RPKRPTTLNL[dF]-NH2) |  | 278 | 89 | 
CC(C)C[C@H](NC(=O)[C@@H](NC(=O)[C@@H](NC(=O)[C@@H]1CCCN1C(=O)[C@H](CCCNC(=N)N)NC(=O)[C@H](CCCCN)NC(=O)[C@@H]1CCCN1C(=O)[C@@H](N)CCCNC(=N)N)[C@@H](C)O)[C@@H](C)O)C(=O)N[C@H](CC(N)=O)C(=O)N[C@@H](CC(C)C)C(=O)N[C@@H](Cc1ccccc1)C(N)=O [SEQ ID NO: 5] (H-RPKRPTTL[dN]LF-NH2) | 348 |  | 387 | 
GRKKRRQRRRPPRPKRPTTLNLFPQVPRSQD [SEQ ID NO: 196, reference compound] |  |  |  | totally degraded into amino acids residues within [5]: ≤ 6 h
C[C@@H]1C[C@H]2[C@@H]3CCC4=CC(=O)C=C[C@]4(C)[C@@]3(F)[C@@H](O)C[C@]2(C)[C@@]1(O)C(=O)CO [dexamethasone, reference compound] |  |  |  | clinical score of ocular inflammation, mean score (mean±SEM) [6]: 0.8±0.2; clinical score of ocular inflammation, median [6]: 0.5
